Laboratory results published in patent publication US7829708B2, “Metabolically inert antifolates for treating disorders of abnormal cellular proliferation and inflammation” (Chelsea Therapeutics, Inc., priority 2004, dated 2010).

What was measured:
human DHFR = target: T1, human DHFR (Homo sapiens, UniProt P00374); assay: Inhibition of recombinant dihydrofolate reductase in vitro; type: biochemical; details: read-out: I50 (human DHFR)
T1 sequence (P00374 1-187): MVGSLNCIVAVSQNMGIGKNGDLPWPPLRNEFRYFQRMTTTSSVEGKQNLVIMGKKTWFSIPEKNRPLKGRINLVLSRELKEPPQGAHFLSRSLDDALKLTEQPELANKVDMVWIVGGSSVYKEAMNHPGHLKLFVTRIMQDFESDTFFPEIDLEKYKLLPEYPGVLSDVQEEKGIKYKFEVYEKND
Source text: (§1) The ability of M-TREX to inhibit recombinant dihydrofolate reductase (DR) and thymidylate synthase (TS) in vitro studied in comparison to other antifolate drugs.

Human TS = Human TS (Homo sapiens, UniProt P04818); assay: Inhibition of recombinant thymidylate synthase in vitro; type: biochemical; details: read-out: I50 (Human TS)
Source text: as §1

Human TS, sequence (P04818 whole entry): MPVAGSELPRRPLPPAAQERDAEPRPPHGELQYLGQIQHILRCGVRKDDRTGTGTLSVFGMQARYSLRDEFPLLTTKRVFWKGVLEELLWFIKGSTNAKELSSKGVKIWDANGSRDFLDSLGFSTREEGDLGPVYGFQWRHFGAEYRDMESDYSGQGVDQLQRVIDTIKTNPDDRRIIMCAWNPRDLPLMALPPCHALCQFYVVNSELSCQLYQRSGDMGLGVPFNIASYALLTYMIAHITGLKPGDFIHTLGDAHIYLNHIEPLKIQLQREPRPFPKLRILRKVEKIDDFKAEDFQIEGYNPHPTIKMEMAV

Row | IC50 (human DHFR) [µM] | IC50 (Human TS) [µM] | SMILES
1 | 0.044 |  | C=C(CC(NC(=O)c1ccc(CCc2cnc3nc(N)nc(N)c3n2)cc1)C(=O)O)C(=O)O (stereo not drawn) [MDAM, methylene-1-deazaaminopterine, reference compound]
2 | 0.017 | 3.8 | C=C(CC(NC(=O)c1ccc(CCc2ccc3nc(N)nc(N)c3c2)cc1)C(=O)O)C(=O)O (stereo not drawn) [M-TREX, 4-Amino-4-deoxy-5,8,10-trideazapteroyl-4′-methylene glutamic acid]
